{
  "source": "patent US6632616B2",
  "about": "“Compounds that selectively bind to expanded polyglutamine repeat domains and methods of use thereof” (Duke University, priority 2000, dated 2003)",
  "key": {"thio-Q62": {"tested_on": "thio-Q62", "sequence (as listed by the source)": "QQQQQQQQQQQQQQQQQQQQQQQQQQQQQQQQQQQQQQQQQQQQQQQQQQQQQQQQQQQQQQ", "assay": "Thioredoxin-polyglutamine turbidity (aggregation) assay, thio-Q62", "type": "biochemical", "details": "for Ability to Inhibit Aggregation: 62 glutamines, 10 days", "protocol": "(§1) Turbidity assays were performed in 200 μl reactions consisting of thioredoxin-polyglutamine in PBS in 96-well, low protein binding plates. Plates were incubated at 4° C. and turbidity measured at 405 nm on a Thermo Max plate reader (Molecular Devices).\n(§2) Peptides were synthesized at the Howard Hughes Medical Institute peptide sequencing facility at Duke University with an acetylated amino terminus and protection of tryptophan with BOC during synthesis. Identical results were obtained with peptides obtained from Bio-Synthesis Inc. (Lewisville, Tex.). Stock solutions of peptides were prepared fresh daily by dissolving in dimethyl sulfoxide at 2.5 mM and incubated with thioredoxin-polyglutamine protein at 0.25-25 μM.\n(§3) To monitor thioredoxin-polyglutamine protein aggregation a turbidometric assay was developed, similar to the assays commonly used to study microtubule assembly and β-amyloid aggregation (Jarrett, J. T. et al. (1993) Biochem 32, 4693-4697; Sloboda, R. D. et al. (1976) Biochem 15, 4497-4505). Solutions of thio-Q62 and 81 protein increased turbidity in a polyglutamine length-, time- and concentration-dependent manner (FIG. 1B and C; Time dependence of aggregation of thioredoxin-polyglutamine with 81 glutamines not shown). […] The pelleted and retained material was confirmed as thioredoxin-polyglutamine fusion protein containing 62 or 81 glutamines on western blots probed with anti-thioredoxin or anti-polyglutamine antibody (not shown). In contrast, thioredoxin-polyglutamine protein containing 19 or 35 glutamines (thio-Q19 or 35) was not pelleted by centrifugation and was not trapped by a 0.22 μm filter."}, "[1]": {"tested_on": "COS 7 cells expressing Q81-YFP", "assay": "Peptides added to transfected COS 7 cells expressing Q81-YFP: cell death", "type": "cell-based", "details": "for effect on cell death (in words): peptide added to cells", "excerpt": "(§4) Several proteins can ferry peptides or proteins into cells through the plasma membrane including HIV transactivator protein (TAT) (SEQ ID NO:37), antennapedia (SEQ ID NO:38), and herpes simplex virus type 1 protein 22 (SEQ ID NO:39) (Prochiantz, Curr Opin Cell Biol. 12:400-406 (2000)). […] The arginine-rich domains of these proteins are sufficient to transport some intact proteins even when fused to non-native proteins. The ability of polyglutamine-binding peptides fused to a TAT fragment to enter transfected COS 7 cells and inhibit polyglutamine aggregation and cell death was examined."}, "Q81-YFP": {"tested_on": "Q81-YFP", "sequence (as listed by the source)": "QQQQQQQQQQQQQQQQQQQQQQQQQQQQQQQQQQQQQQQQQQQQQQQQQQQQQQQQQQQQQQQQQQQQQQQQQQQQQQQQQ", "assay": "Peptides added to transfected COS 7 cells expressing Q81-YFP: aggregation", "type": "cell-based", "excerpt": "as §4"}, "polyglutamine": {"tested_on": "polyglutamine", "assay": "In vitro polyglutamine aggregation, polyarginine transport peptide", "type": "biochemical"}, "thio-Q19 or 35": {"tested_on": "thio-Q19 or 35", "assay": "Thioredoxin-polyglutamine turbidity assay, nonpathologic thio-Q19 or 35", "type": "biochemical", "protocol": "as §1, §2, §3"}, "[2]": {"tested_on": "Q57-YFP induced cell death", "assay": "Q57-YFP induced cell death in co-transfected COS-7 cells (ethidium homodimer)", "type": "cell-based", "details": "peptides fused to CFP, co-expressed; COS-7, 48 hours; ethidium homodimer", "protocol": "FIG. 5. […] Open bar=cells co-transfected with Q57-YFP and RAN-CFP. Hatched bar=cells co-transfected with Q57-YFP and SCR-CFP. Filled bar=cells co-transfected with Q57-YFP and QBP1-CFP. Dotted bar=cells co-transfected with Q57-YFP and (QBPI)2-CFP. COS-7 cells examined 48 hours after transfection using a Zeiss fluorescence microscope with rhodamine filter set. The percentage of dead cells was calculated by counting the number of transfected cells stained with ethidium homodimer and dividing by the total number of transfected cells multiplied times 100. In each experiment at least 200 transfected cells were counted. Experiments were repeated at least three times. Error bars represent standard errors. *=p<0.05; **=p<0.01 (Student's t-test).\nCOS-7 cells were grown and maintained in Dulbecco's modified Eagles' medium (DMEM) supplemented with 10% fetal calf serum (FCS). Cells were transfected with Effectene according to manufacturer's instructions (Qiagen GmbH, Hilden, Germany). Cells were examined 48 hours after transfection using a Zeiss fluorescence microscope equipped with YFP/CFP filter sets (Omega Optical Inc., Brattleboro, Vt.). The percentage of cells with aggregates was calculated by dividing the number of cells with aggregates by the total number of fluorescent cells, multiplied by 100. Cell viability was examined 48 hours after transfection using ehtidium homodimer (Molecular Probes, Eugene, Oreg.). Cells were incubated with 5 μM ethidium homodimer for 30 minutes (37° C.) and then examined under a fluorescence microscope equipped with a rhodamine filter set. Cells with nuclear fluorescence were counted as dead. In each experiment at least 200 transfected cells were counted. Cells expressing random peptide-CFP (RAN-CFP) and polyglutamine-YFP (Qn-YFP) were used as a control to calculate the relative difference in aggregate formation and cell death. Experiments were repeated at least four times.\nThe relationship between polyglutamine protein aggregation and cell death is controversial. To determine whether QBP1 or tandem-QBP1 inhibit polyglutamine-induced cell death, cell membrane permeability to ethidium homodimer was assayed. The membranes of living cells are impermeable to ethidium homodimer and permeability to ethidium homodimer is a well-established measure of cell death. Ethidium homodimer undergoes a 30-fold increase in fluorescence upon binding to nucleic acid allowing easy detection with a fluorescence microscope using a rhodamine filter. QBP1 and tandem QBP1 ((QBP1)2) fused to CFP inhibit Q57-YFP induced cell death (FIG. 5). […] Similar results have also been observed with Q45- and Q81-YFP (not shown)."}, "[3]": {"details": "5 μm peptide and 15 μM thio-polyglutamine"}, "[4]": {"details": "TAT-fused peptides, 10 μm peptide and 15 μM thio-polyglutamine"}, "[5]": {"details": "versus random peptide fused to TAT"}},
  "data": [
    {"substance": "WKWWPGIFD", "values": [
      {"measurement": "Ability to Inhibit Aggregation", "setting": "thio-Q62; [3]", "result": "++++ (++++ = full inhibition)"},
      {"measurement": "effect on cell death (in words)", "setting": "[1]", "result": "no effect"},
      {"measurement": "effect on aggregation in cells (in words)", "setting": "Q81-YFP; peptide added to cells", "result": "no effect"}
    ]},
    {"substance": "WKWWPGIFD-GGRRRRRRRR (WKWWPGIFDGGRRRRRRRR)", "values": [
      {"measurement": "effect on cell death (in words)", "setting": "[1]", "result": "inhibits"},
      {"measurement": "inhibition of in vitro polyglutamine aggregation", "setting": "polyglutamine", "result": "inhibits"},
      {"measurement": "effect on aggregation in cells (in words)", "setting": "Q81-YFP; peptide added to cells", "result": "inhibits"}
    ]},
    {"substance": "WKWWPGIFD-TAT (WKWWPGIFDGGYGRKKRRQRRR)", "values": [
      {"measurement": "Ability to Inhibit Aggregation", "setting": "thio-Q62; [4]", "result": "+++ (+++ = 75% inhibition)"},
      {"measurement": "inhibition of cell death", "setting": "[1]; [5]", "result": 39, "unit": "%"},
      {"measurement": "percentage of transfected cells that died", "setting": "[1]; within 72 hours", "result": 6.0, "unit": "%"},
      {"measurement": "percentage of transfected cells with Q81-YFP aggregates", "setting": "Q81-YFP; peptide added to cells", "result": 22.1, "unit": "%"},
      {"measurement": "inhibition of Q81-YFP aggregation", "setting": "Q81-YFP; [5]", "result": 32, "unit": "%"}
    ]},
    {"substance": "WKWWPWKWW", "values": [
      {"measurement": "Ability to Inhibit Aggregation", "setting": "thio-Q62; [3]", "result": "+++ (+++ = 75% inhibition)"}
    ]},
    {"substance": "WKWWPWKWW-TAT (WKWWPWKWWGGYGRKKRRQRRR)", "values": [
      {"measurement": "Ability to Inhibit Aggregation", "setting": "thio-Q62; [4]", "result": "++++ (++++ = full inhibition)"}
    ]},
    {"substance": "WKWWVWKWW", "values": [
      {"measurement": "Ability to Inhibit Aggregation", "setting": "thio-Q62; [3]", "result": "++ (++ = 50% inhibition)"}
    ]},
    {"substance": "WKWWVWKWWP", "values": [
      {"measurement": "Ability to Inhibit Aggregation", "setting": "thio-Q62; [3]", "result": "++++ (++++ = full inhibition)"}
    ]},
    {"substance": "WKWWVWKWWP-TAT (WKWWVWKWWPGGYGRKKRRQRRR)", "values": [
      {"measurement": "Ability to Inhibit Aggregation", "setting": "thio-Q62; [4]", "result": "++++ (++++ = full inhibition)"}
    ]},
    {"substance": "WLWWPGIFD", "values": [
      {"measurement": "Ability to Inhibit Aggregation", "setting": "thio-Q62; [3]", "result": "++ (++ = 50% inhibition)"}
    ]},
    {"substance": "WPIWSKGNDWF [SCR, reference compound]", "values": [
      {"measurement": "inhibition of thio-Q62 aggregation (in words)", "setting": "thio-Q62; turbidity at 405 nm, FIG. 2", "result": "did not inhibit aggregation"},
      {"measurement": "effect on turbidity of nonpathologic thio-Q19 or 35", "setting": "thio-Q19 or 35", "result": "no effect"},
      {"measurement": "inhibition of Q57-YFP induced cell death", "setting": "[2]", "result": "does not inhibit cell death"}
    ]},
    {"substance": "WVWWPGIFD", "values": [
      {"measurement": "Ability to Inhibit Aggregation", "setting": "thio-Q62; [3]", "result": "+++ (+++ = 75% inhibition)"}
    ]},
    {"substance": "WWWWPGIFD", "values": [
      {"measurement": "Ability to Inhibit Aggregation", "setting": "thio-Q62; [3]", "result": "++ (++ = 50% inhibition)"}
    ]}
  ]
}
